Test results: patent US20250064941A1, “SIGLEC LIGANDS, CONJUGATES, AND METHODS OF USE THEREOF” (Osprey Biopharmaceuticals, Inc., priority 2023, published 2025)

How the values were obtained:
[1] = molecular target: T1, mouse Siglec-2-Fc-Avi (CD22) (Mus musculus, UniProt P35329); test: SPR binding affinity to mouse CD22; details: steady-state analysis
T1 construct: made in house
T1 sequence (P35329 22-708 limits assumed): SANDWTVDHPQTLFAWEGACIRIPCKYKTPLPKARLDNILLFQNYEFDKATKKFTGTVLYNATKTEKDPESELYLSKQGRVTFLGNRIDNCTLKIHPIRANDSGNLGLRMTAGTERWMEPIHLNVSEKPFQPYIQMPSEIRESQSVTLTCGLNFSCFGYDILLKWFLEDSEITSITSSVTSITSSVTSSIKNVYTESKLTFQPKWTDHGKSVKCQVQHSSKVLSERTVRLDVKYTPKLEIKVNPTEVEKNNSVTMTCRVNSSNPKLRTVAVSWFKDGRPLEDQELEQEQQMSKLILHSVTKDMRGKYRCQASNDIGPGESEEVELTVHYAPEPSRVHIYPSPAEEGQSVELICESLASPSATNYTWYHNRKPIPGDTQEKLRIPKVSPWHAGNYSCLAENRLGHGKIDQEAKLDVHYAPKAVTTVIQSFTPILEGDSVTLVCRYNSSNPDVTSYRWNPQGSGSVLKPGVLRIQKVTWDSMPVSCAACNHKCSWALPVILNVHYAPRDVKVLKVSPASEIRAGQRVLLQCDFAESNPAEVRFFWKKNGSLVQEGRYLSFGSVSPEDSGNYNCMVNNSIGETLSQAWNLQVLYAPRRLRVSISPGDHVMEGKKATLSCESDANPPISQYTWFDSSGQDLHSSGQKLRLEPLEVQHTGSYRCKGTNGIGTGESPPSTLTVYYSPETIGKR
Outline: (§1)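 Steady-state fits gave the affinities. Before capture on a streptavidin surface, biotinylated CD22 had native sialic acids stripped (SialoExo, 4 hours, 37° C.). Running buffer: 10 mM HEPES pH 7.5, 150 mM NaCl, 0.05% Tween-20, 1% DMSO, with DMSO solvent correction.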

[2] = molecular target: T2, human Siglec-2/CD22 protein (Homo sapiens, UniProt P20273); test: SPR binding affinity to human CD22; details: steady-state analysis
T2 construct: purchased Acro Biosystems SI2-H82E3
T2 sequence (P20273 20-847): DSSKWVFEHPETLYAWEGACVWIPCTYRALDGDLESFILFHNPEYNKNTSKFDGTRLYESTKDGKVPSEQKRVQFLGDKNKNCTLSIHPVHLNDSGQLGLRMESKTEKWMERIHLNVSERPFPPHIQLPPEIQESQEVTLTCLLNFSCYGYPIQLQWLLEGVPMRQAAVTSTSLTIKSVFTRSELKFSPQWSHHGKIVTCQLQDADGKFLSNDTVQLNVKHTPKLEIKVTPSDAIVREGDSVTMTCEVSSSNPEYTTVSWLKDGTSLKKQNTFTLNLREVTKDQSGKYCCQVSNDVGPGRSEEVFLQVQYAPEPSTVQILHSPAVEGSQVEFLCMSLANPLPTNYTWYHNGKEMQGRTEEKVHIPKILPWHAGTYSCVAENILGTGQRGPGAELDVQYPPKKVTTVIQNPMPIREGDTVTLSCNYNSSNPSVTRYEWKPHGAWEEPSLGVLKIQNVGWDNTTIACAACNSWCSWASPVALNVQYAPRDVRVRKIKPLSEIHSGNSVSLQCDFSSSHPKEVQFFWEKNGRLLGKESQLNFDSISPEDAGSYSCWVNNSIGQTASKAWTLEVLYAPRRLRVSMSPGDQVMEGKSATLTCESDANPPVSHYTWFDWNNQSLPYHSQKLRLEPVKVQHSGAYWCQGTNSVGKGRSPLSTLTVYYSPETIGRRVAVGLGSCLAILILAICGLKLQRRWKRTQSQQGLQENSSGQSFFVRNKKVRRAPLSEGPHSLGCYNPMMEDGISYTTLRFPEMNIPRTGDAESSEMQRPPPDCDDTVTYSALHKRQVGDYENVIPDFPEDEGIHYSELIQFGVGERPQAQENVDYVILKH
Outline: as §1

[3] = molecular target: cynomolgus Siglec-2/CD22 (Macaca fascicularis, UniProt A0A2K5WCZ6); test: biochemical; type: binding; details: SPR, steady-state analysis; read-out: Affinity cyno CD22
Outline: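 SPR with desialylated (SialoExo, 4 h, 37° C.) cynomolgus CD22 amine-coupled to a CM5 chip. Running buffer 10 mM HEPES, 150 mM NaCl, 0.05% Tween-20, pH 7.5, 1% DMSO, with solvent correction; 120 s dissociation. Affinities from steady-state analysis.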

Sequence of cynomolgus Siglec-2/CD22 (A0A2K5WCZ6 entry or part of it): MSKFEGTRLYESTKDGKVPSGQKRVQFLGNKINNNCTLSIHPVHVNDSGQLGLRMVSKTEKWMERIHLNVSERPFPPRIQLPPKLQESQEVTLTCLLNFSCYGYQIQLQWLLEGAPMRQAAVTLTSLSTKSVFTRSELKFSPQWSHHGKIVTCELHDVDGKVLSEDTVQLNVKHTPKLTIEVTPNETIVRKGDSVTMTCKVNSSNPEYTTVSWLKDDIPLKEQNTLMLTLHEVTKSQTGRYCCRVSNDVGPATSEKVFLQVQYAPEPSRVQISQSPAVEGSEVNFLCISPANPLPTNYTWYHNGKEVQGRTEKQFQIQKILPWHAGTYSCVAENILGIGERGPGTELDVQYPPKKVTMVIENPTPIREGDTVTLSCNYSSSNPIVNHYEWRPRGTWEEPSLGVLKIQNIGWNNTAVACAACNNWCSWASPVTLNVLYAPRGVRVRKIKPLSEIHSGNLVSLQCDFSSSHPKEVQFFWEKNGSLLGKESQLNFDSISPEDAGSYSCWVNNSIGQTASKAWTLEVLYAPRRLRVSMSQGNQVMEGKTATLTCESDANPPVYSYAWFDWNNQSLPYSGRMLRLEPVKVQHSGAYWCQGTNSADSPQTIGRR

Row | Structure (SMILES) | Kd [1] | Kd [2] | Kd [3]
1 | C#CCCOCCOCCO[C@]1(C(=O)O)C[C@H](O)[C@@H](NC(=O)CO)[C@H]([C@H](O)[C@H](O)CNC(=O)Cc2ccc(-c3ccc(O)cc3)cc2)O1 [Compound 83, (2R,4S,5R,6R)-2-(2-(2-(but-3-yn-1-yloxy)ethoxy)ethoxy)-6-((1R,2R)-1,2-dihydroxy-3-(2-(4′-hydroxy-[1,1′-biphenyl]-4-yl)acetamido)propyl)-4-hydroxy-5-(2-hydroxyacetamido)tetrahydro-2H-pyran-2-carboxylic acid] | 1000 to 10000 nM | < 1000 nM | 1000 to 10000 nM
2 | C#CCOCCCCCCO[C@]1(C(=O)O)C[C@H](O)[C@@H](NC(=S)NC)[C@H]([C@H](O)[C@H](O)CNC(=O)Cc2ccc(Cl)cc2)O1 [Compound 84, (2R,4S,5R,6R)-6-((1R,2R)-3-(2-(4-chlorophenyl)acetamido)-1,2-dihydroxypropyl)-4-hydroxy-5-(3-methylthioureido)-2-((6-(prop-2-yn-1-yloxy)hexyl)oxy)tetrahydro-2H-pyran-2-carboxylic acid] | 1000 to 10000 nM | < 1000 nM | 1000 to 10000 nM
3 | C#CCOCCCCCCO[C@]1(C(=O)O)C[C@H](O)[C@@H](NC(=O)N(C)C)[C@H]([C@H](O)[C@H](O)CNC(=O)Cc2ccc(Cl)cc2)O1 [Compound 85, (2R,4S,5R,6R)-6-((1R,2R)-3-(2-(4-chlorophenyl)acetamido)-1,2-dihydroxypropyl)-5-(3,3-dimethylureido)-4-hydroxy-2-((6-(prop-2-yn-1-yloxy)hexyl)oxy)tetrahydro-2H-pyran-2-carboxylic acid] | 1000 to 10000 nM | < 1000 nM | < 1000 nM
4 | C#CCOCCCCCCO[C@]1(C(=O)O)C[C@H](O)[C@@H](NC(=O)CC2CC2)[C@H]([C@H](O)[C@H](O)CNC(=O)Cc2ccc(Cl)cc2)O1 [Compound 88, (2R,4S,5R,6R)-6-((1R,2R)-3-(2-(4-chlorophenyl)acetamido)-1,2-dihydroxypropyl)-5-(2-cyclopropylacetamido)-4-hydroxy-2-((6-(prop-2-yn-1-yloxy)hexyl)oxy)tetrahydro-2H-pyran-2-carboxylic acid] | > 10000 nM | 1000 to 10000 nM | 1000 to 10000 nM
5 | C#CCOCCCCCCO[C@]1(C(=O)O)C[C@H](O)[C@@H](NC(=O)NC2CC2)[C@H]([C@H](O)[C@H](O)CNC(=O)Cc2ccc(Cl)cc2)O1 [Compound 89, (2R,4S,5R,6R)-6-((1R,2R)-3-(2-(4-chlorophenyl)acetamido)-1,2-dihydroxypropyl)-5-(3-cyclopropylureido)-4-hydroxy-2-((6-(prop-2-yn-1-yloxy)hexyl)oxy)tetrahydro-2H-pyran-2-carboxylic acid] | 1000 to 10000 nM | 1000 to 10000 nM | 1000 to 10000 nM
6 | C#CCOCCCCCCO[C@]1(C(=O)O)C[C@H](O)[C@@H](NC(=O)C(F)(F)F)[C@H]([C@H](O)[C@H](O)CNC(=O)Cc2ccc(Cl)cc2)O1 [Compound 90, (2R,4S,5R,6R)-6-((1R,2R)-3-(2-(4-chlorophenyl)acetamido)-1,2-dihydroxypropyl)-4-hydroxy-2-((6-(prop-2-yn-1-yloxy)hexyl)oxy)-5-(2,2,2-trifluoroacetamido)tetrahydro-2H-pyran-2-carboxylic acid] | 1000 to 10000 nM | < 1000 nM | < 1000 nM
7 | C#CCOCCCCCCO[C@]1(C(=O)O)C[C@H](O)[C@@H](NC(=O)COc2ccccc2)[C@H]([C@H](O)[C@H](O)CNC(=O)Cc2ccc(Cl)cc2)O1 [Compound 91, (2R,4S,5R,6R)-6-((1R,2R)-3-(2-(4-chlorophenyl)acetamido)-1,2-dihydroxypropyl)-4-hydroxy-5-(2-phenoxyacetamido)-2-((6-(prop-2-yn-1-yloxy)hexyl)oxy)tetrahydro-2H-pyran-2-carboxylic acid] | > 10000 nM | 1000 to 10000 nM | < 1000 nM
8 | C#CCOCCCCCCO[C@]1(C(=O)O)C[C@H](O)[C@@H](NC(=O)Cc2ccccc2)[C@H]([C@H](O)[C@H](O)CNC(=O)Cc2ccc(Cl)cc2)O1 [Compound 93, (2R,4S,5R,6R)-6-((1R,2R)-3-(2-(4-chlorophenyl)acetamido)-1,2-dihydroxypropyl)-4-hydroxy-5-(2-phenylacetamido)-2-((6-(prop-2-yn-1-yloxy)hexyl)oxy)tetrahydro-2H-pyran-2-carboxylic acid] | > 10000 nM | 1000 to 10000 nM | > 10000 nM
9 | C#CCOCCCCCCO[C@]1(C(=O)O)C[C@H](O)[C@@H](NC(=O)NCC2CC2)[C@H]([C@H](O)[C@H](O)CNC(=O)Cc2ccc(Cl)cc2)O1 [Compound 94, (2R,4S,5R,6R)-6-((1R,2R)-3-(2-(4-chlorophenyl)acetamido)-1,2-dihydroxypropyl)-5-(3-(cyclopropylmethyl)ureido)-4-hydroxy-2-((6-(prop-2-yn-1-yloxy)hexyl)oxy)tetrahydro-2H-pyran-2-carboxylic acid] | 1000 to 10000 nM | 1000 to 10000 nM | 1000 to 10000 nM
10 | C#CCCCCNC(=O)CCCCCCO[C@]1(C(=O)O)C[C@H](O)[C@@H](NC(=O)CO)[C@H]([C@H](O)[C@H](O)CNC(=O)Cc2ccc(Cl)cc2)O1 [Compound 96, (2R,4S,5R,6R)-6-((1R,2R)-3-(2-(4-chlorophenyl)acetamido)-1,2-dihydroxypropyl)-2-((7-(hex-5-yn-1-ylamino)-7-oxoheptyl)oxy)-4-hydroxy-5-(2-hydroxyacetamido)tetrahydro-2H-pyran-2-carboxylic acid] | < 1000 nM | < 1000 nM | < 1000 nM
11 | O=C(O)CCCCCCCO[C@]1(C(=O)O)C[C@H](O)[C@@H](NC(=O)CO)[C@H]([C@H](O)[C@H](O)CNC(=O)Cc2ccc(Cl)cc2)O1 [Compound 97, (2R,4S,5R,6R)-2-((7-carboxyheptyl)oxy)-6-((1R,2R)-3-(2-(4-chlorophenyl)acetamido)-1,2-dihydroxypropyl)-4-hydroxy-5-(2-hydroxyacetamido)tetrahydro-2H-pyran-2-carboxylic acid] | < 1000 nM | < 1000 nM | < 1000 nM
12 | O=C(O)CCCCCCO[C@]1(C(=O)O)C[C@H](O)[C@@H](NC(=O)CO)[C@H]([C@H](O)[C@H](O)CNC(=O)Cc2ccc(Cl)cc2)O1 [Compound 98, (2R,4S,5R,6R)-2-((6-carboxyhexyl)oxy)-6-((1R,2R)-3-(2-(4-chlorophenyl)acetamido)-1,2-dihydroxypropyl)-4-hydroxy-5-(2-hydroxyacetamido)tetrahydro-2H-pyran-2-carboxylic acid] | 1000 to 10000 nM | < 1000 nM | < 1000 nM
13 | O=C(O)CCCCCCCCCCCCCCCO[C@]1(C(=O)O)C[C@H](O)[C@@H](NC(=O)CO)[C@H]([C@H](O)[C@H](O)CNC(=O)Cc2ccc(Cl)cc2)O1 [Compound 99, (2R,4S,5R,6R)-2-((15-carboxypentadecyl)oxy)-6-((1R,2R)-3-(2-(4-chlorophenyl)acetamido)-1,2-dihydroxypropyl)-4-hydroxy-5-(2-hydroxyacetamido)tetrahydro-2H-pyran-2-carboxylic acid] | < 1000 nM | < 1000 nM | < 1000 nM
